PMC9007139 (Journal of medicinal chemistry, 2020)

Columns and labels:
[1] = In vivo pharmacokinetics, dog; set-up: species or system Male beagle dogs; conditions: male, beagle, plasma, iv, 0.3 mg/kg
[2] = In vivo pharmacokinetics, rat; set-up: species or system Male Sprague-Dawley rats; conditions: male, Sprague-Dawley, plasma, iv, 0.3 mg/kg
[3] = in vitro; conditions: rat, microsomes, pH 7.4
[4] = Caco-2 permeability; format: in vitro ADME

## CNC(=O)c1cn(C[C@H](F)CCc2ccc(NC(=O)Cc3cc(OC4CC(F)(F)C4)ccn3)nn2)nn1 [Compound 24]
[1]
  clearance: 0.18 L/h/kg
[2]
  clearance: 0.18 L/h/kg

## CNC(=O)c1cn(C[C@H](F)CCc2ccc(NC(=O)Cc3cc(-c4cccc(OC(F)(F)F)c4)ccn3)nn2)nn1 [Compound 25]
[1]
  clearance: 0.174 L/h/kg
[2]
  clearance: 0.48 L/h/kg
[3]
  CLint scaled at 1 uM: 1.32 L/h/kg

## CNC(=O)c1cn(C[C@H](F)CCc2ccc(NC(=O)Cc3cc(C(F)(F)F)cc(C)n3)nn2)nn1 [Compound 26]
[1]
  clearance: 0.054 L/h/kg
[2]
  clearance: 0.06 L/h/kg

## CNC(=O)c1cn(C[C@H](F)CCc2ccc(NC(=O)Cc3cc(OC4CC(F)(F)C4)cc(C)n3)nn2)nn1 [Compound 27, (R)-1-(4-(6-(2-(4-(3,3-difluorocyclobutoxy)-6-methylpyridin-2-yl)acetamido)pyridazin-3-yl)-2-fluorobutyl)-N-methyl-1H-1,2,3-triazole-4-carboxamide]
[1]
  clearance: 0.036 L/h/kg
[4]
  efflux in Caco-2 assay: mild efflux
[2]
  clearance: 0.018 L/h/kg
